Laboratory results: the supplement of paper PMC10307832

What was measured:
Test in all cases: relative viability (nuclei count vs DMSO), 5 days (fraction); higher = more cells survive
[1] = compound: CC1=CC=C(C=C1)C(=O)CN2C3=C(CCCC3)SC2=N [Pifithrin_alpha] + Cc1nc(NC(=O)N2CCC[C@H]2C(N)=O)sc1-c1ccnc(C(C)(C)C(F)(F)F)c1 [Alpelisib] (partner 2 µM)
In short: (§1)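 Lung cancer cell lines were pin-tool dosed in 1536-well plates on the day after seeding, with either a lone drug or a fixed anchor-drug dose plus five library-drug doses (not always all listed) in √10 steps. Nuclei were counted on 4× images after 5 days. Relative viability is the ratio of treated-well to vehicle-well nuclei counts, with each value a median of duplicate plates.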

Axitinib + Decitabine = compound: CNC(=O)c1ccccc1Sc1ccc2c(/C=C/c3ccccn3)n[nH]c2c1 [Axitinib] + Nc1ncn([C@H]2C[C@H](O)[C@@H](CO)O2)c(=O)n1 [Decitabine] (partner 2 µM)
In short: as §1

Bemcentinib + Pictilisib = compound: Nc1nc(Nc2ccc3c(c2)CC[C@@H](N2CCCC2)CC3)nn1-c1cc2c(nn1)-c1ccccc1CCC2 [Bemcentinib] + CS(=O)(=O)N1CCN(Cc2cc3nc(-c4cccc5[nH]ncc45)nc(N4CCOCC4)c3s2)CC1 [Pictilisib] (partner 1 µM)
In short: as §1

Bemcentinib + Phenformin = compound: Nc1nc(Nc2ccc3c(c2)CC[C@@H](N2CCCC2)CC3)nn1-c1cc2c(nn1)-c1ccccc1CCC2 [Bemcentinib] + N=C(N)NC(=N)NCCc1ccccc1 [Phenformin] (partner 250 µM)
In short: as §1

| Cell Line | relative viability ([1]; first compound 1 µM) | relative viability ([1]; first compound 3.162 µM) | relative viability ([1]; first compound 10 µM) | relative viability ([1]; first compound 31.62 µM) | relative viability ([1]; first compound 100 µM) | relative viability (Axitinib + Decitabine; first compound 0.005 µM) | relative viability (Axitinib + Decitabine; first compound 0.01581 µM) | relative viability (Axitinib + Decitabine; first compound 0.05 µM) | relative viability (Axitinib + Decitabine; first compound 0.1581 µM) | relative viability (Axitinib + Decitabine; first compound 0.5 µM) | relative viability (Bemcentinib + Pictilisib; first compound 0.04 µM) | relative viability (Bemcentinib + Pictilisib; first compound 0.1265 µM) | relative viability (Bemcentinib + Pictilisib; first compound 0.4 µM) | relative viability (Bemcentinib + Pictilisib; first compound 1.265 µM) | relative viability (Bemcentinib + Pictilisib; first compound 4 µM) | relative viability (Bemcentinib + Phenformin; first compound 0.04 µM) | relative viability (Bemcentinib + Phenformin; first compound 0.1265 µM) | relative viability (Bemcentinib + Phenformin; first compound 0.4 µM) | relative viability (Bemcentinib + Phenformin; first compound 1.265 µM) | relative viability (Bemcentinib + Phenformin; first compound 4 µM) |
| --- | --- | --- | --- | --- | --- | --- | --- | --- | --- | --- | --- | --- | --- | --- | --- | --- | --- | --- | --- | --- |
| SK-MES-1 | 0.882 | 0.955 | 0.851 | 0.626 | 0.775 | 0.324 | 0.361 | 0.364 | 0.348 | 0.449 | 0.303 | 0.379 | 0.404 | 0.361 | 0.374 | 0.687 | 0.691 | 0.652 | 0.758 | 0.667 |
| NCI-H1648 |  |  |  |  |  | 0.537 | 0.574 | 0.568 | 0.519 | 0.478 |  |  |  |  |  |  |  |  |  |  |
| PC-3 [JPC-3] | 0.953 | 0.945 | 0.975 | 0.884 | 0.882 | 0.865 |  | 0.826 | 0.889 | 0.824 | 0.724 | 0.933 | 0.802 | 0.764 | 0.732 | 0.477 | 0.454 | 0.473 | 0.497 | 0.448 |
| NCI-H1666 | 0.771 | 0.577 | 0.527 | 0.479 | 0.352 | 0.751 | 0.747 | 0.731 | 0.73 | 0.75 | 0.313 | 0.596 | 0.427 | 0.43 | 0.55 | 0.572 | 0.675 | 0.564 | 0.564 | 0.635 |
| IA-LM | 0.917 | 0.757 | 0.356 | 0.442 | 0.423 |  |  |  |  |  | 0.33 | 0.374 | 0.397 | 0.304 | 0.33 |  |  |  |  |  |
| HCC-78 | 0.295 | 0.337 | 0.352 |  | 0.296 | 0.69 | 0.577 | 0.806 | 0.698 | 0.653 | 0.144 | 0.211 | 0.202 | 0.197 | 0.202 | 0.639 | 0.656 | 0.742 |  | 0.668 |
| HCC-366 | 0.282 | 0.3 | 0.329 |  | 0.234 | 0.361 | 0.356 | 0.393 | 0.323 | 0.423 | 0.124 | 0.206 | 0.157 | 0.124 | 0.146 | 0.604 | 0.63 | 0.638 | 0.653 | 0.587 |
| NCI-H520 | 1.02 | 1.24 | 0.698 | 0.472 | 0.842 | 0.527 | 0.422 | 0.509 | 0.449 | 0.481 | 0.289 | 0.309 | 0.316 | 0.288 | 0.406 | 0.573 | 0.606 | 0.608 | 0.733 | 0.62 |
| NCI-H1355 | 0.732 | 0.587 | 0.559 | 0.489 | 0.591 | 0.35 | 0.421 | 0.32 | 0.339 | 0.373 | 0.405 | 0.389 | 0.452 | 0.444 | 0.458 | 0.442 | 0.444 | 0.483 | 0.42 | 0.484 |
| SW 1573 | 0.715 | 0.824 | 0.816 | 0.647 | 0.729 | 0.546 | 0.544 | 0.579 | 0.445 | 0.617 | 0.409 | 0.532 | 0.618 | 0.488 | 0.494 | 0.415 | 0.373 | 0.363 | 0.368 | 0.365 |
| COR-L 105 | 0.948 | 0.909 | 0.902 | 0.683 | 0.768 | 0.727 | 0.557 | 0.726 | 0.727 | 0.683 | 0.292 | 0.43 | 0.408 | 0.378 | 0.387 | 0.529 | 0.432 | 0.561 | 0.494 | 0.45 |
| COR-L23 | 0.857 | 0.849 | 0.931 |  | 0.663 | 0.504 | 0.454 | 0.419 | 0.511 | 0.397 | 0.843 | 0.978 | 1.03 | 0.953 | 0.927 | 0.425 | 0.44 | 0.449 | 0.465 | 0.493 |
| NCI-H322M | 0.777 | 0.651 | 0.802 | 0.581 | 0.87 | 0.715 | 0.667 | 0.673 | 0.675 | 0.686 | 0.512 | 0.522 | 0.418 | 0.525 | 0.564 | 0.726 | 0.804 | 0.739 | 0.862 | 0.833 |
| NCI-H2347 | 0.952 | 0.993 | 0.991 | 0.682 | 1.1 | 0.699 | 0.543 | 0.585 | 0.578 | 0.686 | 0.511 | 0.488 | 0.708 | 0.82 | 0.649 | 0.423 | 0.447 | 0.329 | 0.364 | 0.334 |
| RERF-LC-KJ | 0.983 | 0.791 | 0.807 | 0.707 | 0.682 | 0.663 | 0.694 | 0.67 | 0.596 | 0.738 | 0.535 | 0.575 | 0.652 | 0.562 | 0.572 | 0.42 | 0.424 | 0.412 | 0.391 | 0.334 |
| NCI-H2228 | 0.697 | 0.613 | 0.566 | 0.531 | 0.465 |  |  |  |  |  |  | 0.444 | 0.479 | 0.535 | 0.343 | 0.157 | 0.329 | 0.395 | 0.346 | 0.295 |
| A549 | 0.895 | 0.777 | 0.644 | 0.698 | 0.799 | 0.324 | 0.296 | 0.338 | 0.243 | 0.324 | 0.524 | 0.445 | 0.579 | 0.534 | 0.494 | 0.126 | 0.124 | 0.17 | 0.121 | 0.147 |
| NCI-H358 | 0.895 | 0.958 | 0.87 | 0.566 | 0.687 | 0.226 | 0.222 | 0.221 | 0.214 | 0.198 | 0.331 | 0.347 | 0.336 | 0.372 | 0.359 | 0.321 | 0.348 | 0.325 | 0.355 | 0.39 |
